Laboratory results reported in patent US10640547B2, “Immunotherapy against melanoma and other cancers” (IMMATICS BIOTECHNOLOGIES GMBH, priority 2016, dated 2020).

Experiments:
CD8+ T cells = test: In vitro immunogenicity: T-cell priming with artificial APCs loaded with peptide/MHC and anti-CD28, pMHC multimer readout; assay type: cell-based, human; conditions: Table 10B; HLA-A*02 restricted peptides; percentage of positive wells among evaluable
Text: In order to obtain information regarding the immunogenicity of the TUMAPs of the present invention, the inventors performed investigations using an in vitro T-cell priming assay based on repeated stimulations of CD8+ T cells with artificial antigen presenting cells (aAPCs) loaded with peptide/MHC complexes and anti-CD28 antibody.
In order to perform in vitro stimulations by artificial antigen presenting cells loaded with peptide-MHC complex (pMHC) and anti-CD28 antibody, the inventors first isolated CD8+ T cells from fresh HLA-A*02 leukapheresis products via positive selection using CD8 microbeads (Miltenyi Biotec, Bergisch-Gladbach, Germany) of healthy donors obtained from the University clinics Mannheim, Germany, after informed consent.
PBMCs and isolated CD8+ lymphocytes were incubated in T-cell medium (TCM) until use consisting of RPMI-Glutamax (Invitrogen, Karlsruhe, Germany) supplemented with 10% heat inactivated human AB serum (PAN-Biotech, Aidenbach, Germany), 100 U/ml Penicillin/100 μg/ml Streptomycin (Cambrex, Cologne, Germany), 1 mM sodium pyruvate (CC Pro, Oberdorla, Germany), 20 μg/ml Gentamycin (Cambrex). 2.5 ng/ml IL-7 (PromoCell, Heidelberg, Germany) and 10 U/ml IL-2 (Novartis Pharma, Nürnberg, Germany) were also added to the TCM at this step.
Generation of pMHC/anti-CD28 coated beads, T-cell stimulations and readout was performed in a highly defined in vitro system using four different pMHC molecules per stimulation condition and 8 different pMHC molecules per readout condition.
The purified co-stimulatory mouse IgG2a anti human CD28 Ab 9.3 (Jung et al., 1987) was chemically biotinylated using Sulfo-N-hydroxysuccinimidobiotin as recommended by the manufacturer (Perbio, Bonn, Germany). Beads used were 5.6 μm diameter streptavidin coated polystyrene particles (Bangs Laboratories, Illinois, USA).
800.000 beads/200 μl were coated in 96-well plates in the presence of 4×12.5 ng different biotin-pMHC, washed and 600 ng biotin anti-CD28 were added subsequently in a volume of 200 μl. Stimulations were initiated in 96-well plates by co-incubating 1×10^6 CD8+ T cells with 2×10^5 washed coated beads in 200 μl TCM supplemented with 5 ng/ml IL-12 (PromoCell) for 3 days at 37° C. Half of the medium was then exchanged by fresh TCM supplemented with 80 U/ml IL-2 and incubating was continued for 4 days at 37° C. This stimulation cycle was performed for a total of three times. For the pMHC multimer readout using 8 different pMHC molecules per condition, a two-dimensional combinatorial coding approach was used as previously described (Andersen et al., 2012) with minor modifications encompassing coupling to 5 different fluorochromes. Finally, multimeric analyses were performed by staining the cells with Live/dead near IR dye (Invitrogen, Karlsruhe, Germany), CD8-FITC antibody clone SK1 (BD, Heidelberg, Germany) and fluorescent pMHC multimers. For analysis, a BD LSRII SORP cytometer equipped with appropriate lasers and filters was used. Peptide specific cells were calculated as percentage of total CD8+ cells. Evaluation of multimeric analysis was done using the FlowJo software (Tree Star, Oregon, USA). In vitro priming of specific multimer+CD8+ lymphocytes was detected by comparing to negative control stimulations.

HLA-A*02:01 = HLA-A*02:01 (Homo sapiens, UniProt P04439, D140Y/D185E/D98H/E176V/E277Q/G131W/G231S/I119V/I121R/I166T/I218V/L300P/L318F/N151K/N90K/P208A/P217A/Q86G/Q94H/R138H/R169H/T345S); test: MHC binding assay (UV-ligand exchange, β2m ELISA); conditions: MHC class I binding score; binding to HLA-A*02:01 ranged by peptide exchange yield (UV-ligand exchange, β2m ELISA)
How it was run: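 UV-cleavable peptide in HLA monomers exchanged for test peptide by UV irradiation; exchange yield measured by streptavidin-capture ELISA with HRP anti-β2m (TMB, 450 nm) on 100-fold diluted complexes. Quantified against refolded HLA-A*02:01/MLA-001 standards (15-500 ng/ml).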

Substance | Wells positive [%] (CD8+ T cells) | Peptide exchange (HLA-A*02:01)
14 (VLYEMLYGL; listed as Homo sapiens) [compound 14] | +++ (50%-69% = +++) | ++++ (>75% = ++++)
15 (VLYDPVVGC; listed as Homo sapiens) [compound 15] | + (<20% = +) | ++++ (>75% = ++++)
16 (GLFPSNFVTA; listed as Homo sapiens) [compound 16] | + (<20% = +) | ++++ (>75% = ++++)
17 (GVVHGVATV; listed as Homo sapiens) [compound 17] | + (<20% = +) | ++++ (>75% = ++++)
18 (SLADVVDTL; listed as Homo sapiens) [compound 18] | + (<20% = +) | ++++ (>75% = ++++)
20 (VISPHGIASV; listed as Homo sapiens) [compound 20] | ++ (20%-49% = ++) | ++++ (>75% = ++++)
21 (FMYNFQLVTL; listed as Homo sapiens) [compound 21] | + (<20% = +) | ++ (>20% = ++)
31 (FLPRKFPSL; listed as Homo sapiens) [compound 31] | ++ (20%-49% = ++) | ++++ (>75% = ++++)
33 (SLYSYFQKV; listed as Homo sapiens) [compound 33] | ++++ (≥70% = ++++) | ++++ (>75% = ++++)
34 (YLINFEIRSL; listed as Homo sapiens) [compound 34] | + (<20% = +) | ++++ (>75% = ++++)
116 (LMDETMKEL; listed as Homo sapiens) [compound 116] | + (<20% = +) | ++++ (>75% = ++++)
121 (FLEDLVPYL; listed as Homo sapiens) [compound 121] | +++ (50%-69% = +++) | ++++ (>75% = ++++)
128 (ALFPGDVDRL; listed as Homo sapiens) [compound 128] | + (<20% = +) | +++ (>50 = +++)
133 (ALDPAYTTL; listed as Homo sapiens) [compound 133] | + (<20% = +) | +++ (>50 = +++)
155 (GLAGFFASV; listed as Homo sapiens) [compound 155] | ++++ (≥70% = ++++) | ++++ (>75% = ++++)
189 (KALQFLEEV; listed as Homo sapiens) [compound 189] | + (<20% = +) | ++++ (>75% = ++++)
191 (YLDKMNNNI; listed as Homo sapiens) [compound 191] | + (<20% = +) | ++++ (>75% = ++++)
192 (KLFTQIFGV; listed as Homo sapiens) [compound 192] | + (<20% = +) | ++++ (>75% = ++++)
211 (FLPFLTTEV; listed as Homo sapiens) [compound 211] | + (<20% = +) | ++++ (>75% = ++++)
213 (LLDPTNVFI; listed as Homo sapiens) [compound 213] | ++ (20%-49% = ++) | ++++ (>75% = ++++)
232 (KILPDLNTV; listed as Homo sapiens) [compound 232] | + (<20% = +) | ++++ (>75% = ++++)
